We go through one compound from patent US9650395B2, “Antibacterial compounds and methods for use” (PTC Therapeutics, Inc., priority 2011, dated 2017).

Broadly, the MIC is the least concentration at which growth counts as inhibited.

Structures can show the parent of a compound that is named as a salt.

Assay [1] concerns super sensitive Gram-negative Escherichia coli (E. coli) BAS849. Put plainly: Antibacterial activity, microbroth dilution MIC, E. coli BAS849. Format: cell-based. Particulars: Escherichia coli; E. coli BAS849, microbroth dilution; read-out: MIC, BAS849. (In general: Dilution methods test growth across graded concentrations, often in twofold steps.)
For assay [2], the system named is control Gram-negative E. coli 25922 strain. Put plainly: Antibacterial activity, microbroth dilution MIC, E. coli 25922. It is filed as cell-based, Escherichia coli. The conditions noted are these: Escherichia coli; E. coli 25922, microbroth dilution; read-out: MIC, 25922.
Assay [3] has as its system Gram-positive Staphylococcus aureus (S. aureus) 29213. Put plainly: Antibacterial activity, microbroth dilution MIC, S. aureus 29213. Format: cell-based. The conditions noted are these: Staphylococcus aureus; S. aureus 29213, microbroth dilution; read-out: MIC, 29213.
The subject of assay [4] is quinolone resistant E. coli LZ3111. Put plainly: Antibacterial activity, MIC, quinolone resistant E. coli LZ3111. It is filed as cell-based, Escherichia coli. The conditions noted are these: Escherichia coli, read-out: MIC, LZ3111. From the text: (§1) The antibacterial activity from a microbroth dilution method may be presented as the minimum inhibitory concentration (MIC in […]). The MIC value is the lowest concentration of a drug which prevents macroscopically visible bacterial growth under test conditions.
Mutations in these regions are known to confer a high level resistance to the quinolone class of antibiotics.

The subject of assay [5] is E. coli ELZ4251 (MDR clinical isolate). Put plainly: Antibacterial activity, MIC, MDR E. coli ELZ4251. Format: cell-based, Escherichia coli. Particulars: E. coli ELZ4251, MDR clinical isolate; hydrochloride.
Assay [6] concerns Acinetobacter baumannii (A. baumannii) BAA747. The experiment in a line: Antibacterial activity, MIC, A. baumannii BAA747. Format: cell-based. The conditions noted are these: Acinetobacter baumannii; A. baumannii BAA747; read-out: MIC BAA747.
Assay [7] concerns Klebsiella pneumoniae (K. pneumoniae) 35657. The experiment in a line: Antibacterial activity, MIC, K. pneumoniae 35657. It is filed as cell-based. The conditions noted are these: Klebsiella pneumoniae.
Assay [8] concerns resistant A. baumannii MXX2240 (MDR clinical isolate). The experiment in a line: Antibacterial activity, MIC, resistant A. baumannii MXX2240. Format: cell-based, Acinetobacter baumannii. The conditions noted are these: resistant A. baumannii MMX2240, MDR clinical isolate; hydrochloride.
Assay [9] concerns resistant K. pneumoniae MXX1232 (MDR clinical isolate). Put plainly: Antibacterial activity, MIC, resistant K. pneumoniae MXX1232. Format: cell-based, Klebsiella pneumoniae. The conditions noted are these: Klebsiella pneumoniae; resistant K. pneumoniae MMX1232, MDR clinical isolate; read-out: MIC MMX1232.
In assay [10] the test system is Pseudomonas aeruginosa (P. aeruginosa) 27853. The experiment in a line: Antibacterial activity, MIC, P. aeruginosa 27853. It is filed as cell-based. The conditions noted are these: P. aeruginosa 27853; hydrochloride.
Text: as §1
Antibacterial activity of test compounds against the Gram-negative bacterium Pseudomonas aeruginosa (P. aeruginosa) 27853 is shown in Table 5.

Assay [11] deals with Moraxella catarrhalis (M. catarrhalis) 25238. Put plainly: Antibacterial activity, MIC, M. catarrhalis 25238. It is filed as cell-based. Particulars: M. catarrhalis 25238; hydrochloride.
A further assay deals with various organisms. Put plainly: Microdilution checkerboard method, combination with ciprofloxacin (MIC and FIC). It is filed as cell-based. The conditions noted are these: single agent.

In the case of `CCc1c(-c2ccc(N3C[C@@H]4[C@@H](N)[C@@H]4C3)cc2)[nH]c(=O)c(C(=O)O)c1O` [Cpd 269, 6-{4-[(1R,5S,6s)-6-amino-3-azabicyclo[3.1.0]hex-3-yl]phenyl}-5-ethyl-4-hydroxy-2-oxo-1,2-dihydropyridine-3-carboxylic acid hydrochloride], the minimum inhibitory concentration (MIC) in assay [1] was less than 1 µg/mL; in assay [2] it was less than 1 µg/mL; in [3] it was 3.5 to 12.5 µg/mL; in assay [4] it was 3.5 to 12.5 µg/mL; in assay [6], less than 1 µg/mL; in assay [7], less than 1 µg/mL. The MIC is 12.5 to 150 µg/mL in [9]; 12.5 µg/mL in the assay with various organisms (Acinetobacter baumannii, A. baumannii (MDR)); 0.39 µg/mL in the assay with various organisms (Acinetobacter baumannii, BAA747, A. baumannii BAA747); 3.1 µg/mL in the assay with various organisms (Escherichia coli, E. coli 3111); 0.19 µg/mL in the assay on various organisms (Escherichia coli, E. coli 25922); 0.39 µg/mL in the assay with various organisms (Klebsiella pneumoniae, K. pneumoniae 35657). Moreover, the MIC came out at 1.6 µg/mL in the assay on various organisms (Pseudomonas aeruginosa, P. aeruginosa 27853); 3.12 µg/mL in the assay with various organisms (Staphylococcus aureus, S. aureus 29213); 6.2 µg/mL with various organisms (Staphylococcus aureus, S. aureus (MDR)). Also, the “MIC ELZ4251” value in [5] is “* (an MIC value between >12.5 μg/mL and ≦150 μg/mL is indicated by a single star (*))”. Also, the “MIC MMX2240” value in assay [8] was “** (an MIC value between >3.5 μg/mL and ≦12.5 μg/mL is indicated by two stars (**))”. Also, the “MIC 27853” value in [10] is “*** (an MIC value between >1.0 μg/mL and ≦3.5 μg/mL is indicated by three stars (***))”. Further, the “MIC 25238” value in assay [11] is listed as “**** (an MIC value of ≦1.0 μg/mL is indicated by four stars (****))”.
